Reference: the NIST ThermoML archive (doi:10.1016/j.jct.2005.02.008)

Legend:
[1] = Crystal; for mass density: 298.15 K, 101.33 kPa, Pycnometric method; for Normal melting temperature: DTA; for vapor or sublimation pressure: Calculated from knudsen effusion weight loss
[2] = molar heat capacity at constant pressure; conditions: 101.33 kPa, Crystal

c1ccc(-c2nc3ccccc3[nH]2)cc1 [2-phenylbenzimidazole]
[1]
Conditions	Normal melting temperature [°C]	mass density [kg/m3]
–	191.0	1060

[2]
Conditions	molar heat capacity at constant pressure [J/K/mol]
268.15 K	185.23
270.15 K	186.33
273.15 K	188.41
275.15 K	189.51
280.15 K	193.33
285.15 K	197.27
290.15 K	201.29
295.15 K	205.63
298.15 K	208.09
300.15 K	209.51
305.15 K	215.89
310.15 K	220.71
315.15 K	224.47
320.15 K	228.09
325.15 K	231.72
330.15 K	235.41
335.15 K	238.58
340.15 K	242.27
345.15 K	245.77
350.15 K	249.26
355.15 K	252.83
360.15 K	256.06
365.15 K	259.95
370.15 K	263.64
375.15 K	266.16
380.15 K	269.14
385.15 K	272.38
390.15 K	276.33
395.15 K	280.47
400.15 K	285
405.15 K	288.95
410.15 K	292.32
415.15 K	295.82
420.15 K	300.09
425.15 K	304.1
430.15 K	308.05
435.15 K	312.13
440.15 K	316.02
445.15 K	319.51
450.15 K	322.1

c1ccc(Cc2nc3ccccc3[nH]2)cc1 [bendazol]
[1]
Conditions	Normal melting temperature [°C]	mass density [kg/m3]
–	297.4	1140

Conditions	molar heat capacity at constant pressure [J/K/mol]	vapor or sublimation pressure [kPa]
[1], 393.54 K	–	0.000125
[1], 396.81 K	–	0.000178
[1], 400.16 K	–	0.000248
[1], 402.04 K	–	0.000299
[1], 405.47 K	–	0.000419
[1], 409 K	–	0.000596
[1], 412.48 K	–	0.000829
[2], 270.15 K	215.86	–
[2], 273.15 K	218.67	–
[2], 275.15 K	220.51	–
[2], 280.15 K	223.25	–
[2], 285.15 K	227.59	–
[2], 290.15 K	228.63	–
[2], 295.15 K	228.79	–
[2], 298.15 K	228.92	–
[2], 300.15 K	229.04	–
[2], 305.15 K	231.75	–
[2], 310.15 K	233.79	–
[2], 315.15 K	237.21	–
[2], 320.15 K	240.29	–
[2], 325.15 K	244.91	–
[2], 330.15 K	248.5	–
[2], 335.15 K	252.54	–
[2], 340.15 K	255.29	–
[2], 345.15 K	260.53	–
[2], 350.15 K	261.16	–
[2], 355.15 K	264.99	–
[2], 360.15 K	269.16	–
[2], 365.15 K	272.11	–
[2], 370.15 K	283.19	–
[2], 375.15 K	285.9	–
[2], 380.15 K	289.9	–
[2], 385.15 K	293.81	–
[2], 390.15 K	298.39	–
[2], 395.15 K	303.73	–
[2], 400.15 K	307.64	–
[2], 405.15 K	312.35	–
[2], 410.15 K	314.26	–
[2], 415.15 K	322.84	–
[2], 420.15 K	329.18	–
[2], 425.15 K	333.59	–
[2], 430.15 K	342.59	–
[2], 435.15 K	349.42	–
[2], 440.15 K	359.96	–
